Data published in patent publication US9856247B2, “4-methyl-dihydropyrimidines for the treatment and prophylaxis of Hepatitis B virus infection” (Hoffmann-La Roche Inc., priority 2012, dated 2018).
Read-outs that look alike come from different tables or passages of the source.

Assays:
HBV DNA = assay: Anti-HBV activity in HepDE19 cells (HBV DNA dot-blot); assay type: cell-based, Hepatitis B virus (HBV)
Excerpt: Cells and culture conditions: HepDE19 (Haitao Guo et al, Journal of Virology, 81, November 2007, 12472-12484; Richeng Mao et al, Journal of Virology, 85, January 2011, 1048-1057) cells were derived from HepG2 (ATCC, American Type Culture Collection) cells through transfection with pTet-off plasmid (Clontech) that expresses the Tet-responsive transcriptional activator and pTREHBVDE plasmid in which HBV pgRNA expression is controlled by a CMV early promoter with a tetracycline-responsive element. The transfected cells were selected with G418 (also known as Genticin, purchased from Invitrogen). […] These cells were maintained in Dulbecco's modified Eagle's medium (DMEM)-F12 medium (Invitrogen) supplemented with 10% fetal bovine serum, 100 U/ml penicillin, and 100 μg/ml streptomycin, 0.5 mg/ml of G418 and 1 μg/ml tetracycline.
Anti-HBV activity and cytotoxicity: HepDE19 cells were seeded into 96-well plates (3×10^4 cells/well) with tetracycline-free medium and incubated overnight at 37° C. The test or control compounds were serially half-log diluted with medium and added into the plates (the final concentration of DMSO kept at 0.5% in each well). Five days after compound treatment, cells were washed with PBS and lysed with 50 mM Tris-1 mM EDTA-0.2% CA-630 (pH 8.0) at 37° C. for 20 min. After centrifugation to remove nuclei and other debris, the supernatant was transferred into a new plate and incubated with 2M NaOH/20×SSC (3M NaCl, 0.3M Sodium citrate, pH7.0) at rt for 30 min. Then the samples were transferred to nylon membrane and neutralized with 1M Tris (pH7.4)/2M NaCl. The presence of HBV DNA was detected by dot-blot with DIG-labeled HBV specific DNA probe and quantified by dot density. The compound concentrations that inhibited HBV DNA by 50% (EC50) were determined (See Table 1).

in vitro = conditions: human
Method: The transfected cells were selected with G418 (also known as Genticin, purchased from Invitrogen). […] These cells were maintained in Dulbecco's modified Eagle's medium (DMEM)-F12 medium (Invitrogen) supplemented with 10% fetal bovine serum, 100 U/ml penicillin, and 100 μg/ml streptomycin, 0.5 mg/ml of G418 and 1 μg/ml tetracycline.
To determine if the anti-HBV effect of compound is due to cytotoxicity, HepDE 19 cells (5×10^3 cells/well) were seeded into 96-well plates and compounds were treated as described above. […] Four hours after incubation at 37° C., the absorbance at wavelengths of 450 nm and 630 nm (OD450 and OD630) was recorded by a plate reader.

[1] = Hepatitis B virus, 120 h, HepDE19 cells, five days after compound treatment, concentration that inhibited HBV DNA by 50%, read-out: HepDe19 EC50
[2] = Hepatitis B virus, HepDE19, 120 h, read-out: HepDe19 EC50

Row | SMILES | EC50 (HBV DNA; [1]) [µM] | CC50 at 5 days (in vitro) [µM] | EC50 (HBV DNA; [2]) [µM] | EC50 (HBV DNA; read-out: EC50 value, HBV DNA reduction in HepDE19 cell based assays) [µM]
1 | COC(=O)C1=C(CN2CC(F)(F)C[C@H]2C(=O)Nc2nccs2)NC(c2nccs2)=N[C@@]1(C)c1ccc(F)cc1 [Example 52, (S)-6-[(S)-4,4-difluoro-2-(thiazol-2-ylcarbamoyl)-pyrrolidin-1-ylmethyl]-4-(4-fluoro-phenyl)-4-methyl-2-thiazol-2-yl-1,4-dihydro-pyrimidine-5-carboxylic acid methyl ester] | 5.43 | 4.07 |  | 
2 | COC(=O)C1=C(CN2CC(F)(F)C[C@@]2(C)C(=O)O)NC(c2nccs2)=N[C@]1(C)c1ccc(F)cc1 [Example 36, (R)-6-((S)-2-carboxy-4,4-difluoro-2-methyl-pyrrolidin-1-ylmethyl)-4-(4-fluoro-phenyl)-4-methyl-2-thiazol-2-yl-1,4-dihydro-pyrimidine-5-carboxylic acid methyl ester] | 7.49 | ≥ 100 |  | 
3 | COC(=O)C1=C(CN2CCOC[C@H]2C(=O)O)NC(c2nccn2C)=N[C@@]1(C)c1ccc(F)cc1 [Example 30, (S)-4-[(S)-6-(4-fluoro-phenyl)-5-methoxycarbonyl-6-methyl-2-(1-methyl-1H-imidazol-2-yl)-3,6-dihydro-pyrimidin-4-ylmethyl]-morpholine-3-carboxylic acid] | 6.77 | ≥ 100 |  | 
4 | COC(=O)C1=C(CN2CC(F)(F)C[C@H]2C(=O)O)NC(c2nccs2)=N[C@@]1(C)c1ccc(F)cc1 [Example 13, (S)-6-((S)-2-Carboxy-4,4-difluoro-pyrrolidin-1-ylmethyl)-4-(4-fluoro-phenyl)-4-methyl-2-thiazol-2-yl-1,4-dihydro-pyrimidine-5-carboxylic acid methyl ester] |  |  | 0.15 | 
5 | COC(=O)C1=C(CN2C[C@@H](F)C[C@H]2C(=O)O)NC(c2nccs2)=N[C@@]1(C)c1ccc(F)cc1 [Example 39, (S)-6-((2S,4S)-2-carboxy-4-fluoro-pyrrolidin-1-ylmethyl)-4-(4-fluoro-phenyl)-4-methyl-2-thiazol-2-yl-1,4-dihydro-pyrimidine-5-carboxylic acid methyl ester] | 10.5 | ≥ 100 |  | 
6 | COC(=O)C1=C(CN2CC(F)(F)C[C@H]2C(=O)OC)NC(c2nccs2)=N[C@@]1(C)c1ccc(F)cc1 [Example 45, (S)-6-((S)-4,4-difluoro-2-methoxycarbonyl-pyrrolidin-1-ylmethyl)-4-(4-fluoro-phenyl)-4-methyl-2-thiazol-2-yl-1,4-dihydro-pyrimidine-5-carboxylic acid methyl ester] |  | ≥ 100 |  | 
7 | COC(=O)C1=C(CN2CC(F)(F)C[C@H]2C(=O)O)NC(c2nccs2)=NC1(C)c1ccc(F)cc1 (stereo partly drawn) [Example 11, 6-(2-(S)-Carboxy-4,4-difluoro-pyrrolidin-1-ylmethyl)-4-(4-fluoro-phenyl)-4-methyl-2-thiazol-2-yl-1,4-dihydro-pyrimidine-5-carboxylic acid methyl ester] |  |  | 0.46 | 
8 | COC(=O)c1c(C)nc(-c2ncc(F)cc2F)nc1-c1ccc(F)cc1Cl [XLVI] |  |  |  | > 100
9 | COC(=O)C1=C(CN2CC(F)(F)C[C@@H]2C(=O)O)NC(c2nccs2)=NC1(C)c1ccc(F)cc1 (stereo partly drawn) [Example 12, 6-(2-(R)-Carboxy-4,4-difluoro-pyrrolidin-1-ylmethyl)-4-(4-fluoro-phenyl)-4-methyl-2-thiazol-2-yl-1,4-dihydro-pyrimidine-5-carboxylic acid methyl ester] |  |  | 6.59 | 
10 | COC(=O)C1=C(CN2CC(F)(F)C[C@H]2C(=O)O)NC(c2ccc(F)s2)=N[C@@]1(C)c1ccc(F)cc1 [Example 38, (S)-6-((S)-2-carboxy-4,4-difluoro-pyrrolidin-1-ylmethyl)-4-(4-fluoro-phenyl)-2-(5-fluoro-thiophen-2-yl)-4-methyl-1,4-dihydro-pyrimidine-5-carboxylic acid methyl ester] | 2.03 |  |  | 
